Measured values reported in patent EP0034120A1, “Derivatives of phenoxy-phenoxy-carboxylic acids” (CIBA-GEIGY AG, priority 1980, dated 1981).

Experiments:
Format in all cases: in vivo
amarantus retrofl. = experiment: Herbicidal action, pre-emergent application (greenhouse); parameters: key: 1 Pflanze abgestorben; 2-4 schwere Schädigung; 3: 2-4 schwere Schädigung; 2-4 schwere Schädigung; 5, 6 mittlere Schäden; 5, 6 mittlere Schäden; 7, 8 leichte Schäden; 7, 8 leichte Schäden; 9 Pflanze gedeiht normal, wie unbehandelte Kontrollpflanze; settings: after 3 weeks
Protocol: (§1) wurde durchfolgende Versuche ermittelt: Herbizide Wirkung bei Applikation der Wirkstoffe vor dem Auflaufen der Pflanzen (pre-emergent) Im Gewächshaus werden Pflanzensamen in Blumentöpfe von ca. 11 cm Durchmesser gesät. […] Die Töpfe werden dann im Gewächshaus unter optimalen Bedingungen für das Pflanzenwachstum, regelmässiges Bewässern, einer Temperatur von 22-25°C und 50-70% relativer Luftfeuchtigkeit gehalten. Der Versuch wird nach 3 Wochen abgebrochen und der Zustand der Pflanzen gemäss dem folgenden EWRC (European Weed Research Councel) Bewertungsschema registriert: • 1 Pflanze abgestorben • 2-4 schwere Schädigung • 5, 6 mittlere Schäden • 7, 8 leichte Schäden • 9 Pflanze gedeiht normal, wie unbehandelte Kontrollpflanze.

chenopodium sp. = experiment: as above; parameters: key: 1 Pflanze abgestorben; 2-4 schwere Schädigung; 3: 2-4 schwere Schädigung; 2-4 schwere Schädigung; 5, 6 mittlere Schäden; 5, 6 mittlere Schäden; 7, 8 leichte Schäden; 7, 8 leichte Schäden; 9 Pflanze gedeiht normal, wie unbehandelte Kontrollpflanze; settings: after 3 weeks
Protocol: as §1

beta vulgaris = experiment: as above; parameters: key: 1 Pflanze abgestorben; 2-4 schwere Schädigung; 3: 2-4 schwere Schädigung; 2-4 schwere Schädigung; 5, 6 mittlere Schäden; 5, 6 mittlere Schäden; 7, 8 leichte Schäden; 7, 8 leichte Schäden; 9 Pflanze gedeiht normal, wie unbehandelte Kontrollpflanze; settings: after 3 weeks
Protocol: as §1

viola tricolor = experiment: as above; parameters: key: 1 Pflanze abgestorben; 2-4 schwere Schädigung; 3: 2-4 schwere Schädigung; 2-4 schwere Schädigung; 5, 6 mittlere Schäden; 5, 6 mittlere Schäden; 7, 8 leichte Schäden; 7, 8 leichte Schäden; 9 Pflanze gedeiht normal, wie unbehandelte Kontrollpflanze; settings: after 3 weeks
Protocol: as §1

chrysanthemum l. = experiment: as above; parameters: key: 1 Pflanze abgestorben; 2-4 schwere Schädigung; 3: 2-4 schwere Schädigung; 2-4 schwere Schädigung; 5, 6 mittlere Schäden; 5, 6 mittlere Schäden; 7, 8 leichte Schäden; 7, 8 leichte Schäden; 9 Pflanze gedeiht normal, wie unbehandelte Kontrollpflanze; settings: after 3 weeks
Protocol: as §1

sinapis alba = experiment: as above; parameters: key: 1 Pflanze abgestorben; 2-4 schwere Schädigung; 3: 2-4 schwere Schädigung; 2-4 schwere Schädigung; 5, 6 mittlere Schäden; 5, 6 mittlere Schäden; 7, 8 leichte Schäden; 7, 8 leichte Schäden; 9 Pflanze gedeiht normal, wie unbehandelte Kontrollpflanze; settings: after 3 weeks
Protocol: as §1

Weizen = experiment: as above; parameters: key: 1 Pflanze abgestorben; 2-4 schwere Schädigung; 3: 2-4 schwere Schädigung; 2-4 schwere Schädigung; 5, 6 mittlere Schäden; 5, 6 mittlere Schäden; 7, 8 leichte Schäden; 7, 8 leichte Schäden; 9 Pflanze gedeiht normal, wie unbehandelte Kontrollpflanze; settings: after 3 weeks
Protocol: as §1

Reis = experiment: as above; parameters: key: 1 Pflanze abgestorben; 2-4 schwere Schädigung; 3: 2-4 schwere Schädigung; 2-4 schwere Schädigung; 5, 6 mittlere Schäden; 5, 6 mittlere Schäden; 7, 8 leichte Schäden; 7, 8 leichte Schäden; 9 Pflanze gedeiht normal, wie unbehandelte Kontrollpflanze; settings: after 3 weeks
Protocol: as §1

abutilon sp = experiment: as above; parameters: key: 1 Pflanze abgestorben; 2-4 schwere Schädigung; 3: 2-4 schwere Schädigung; 2-4 schwere Schädigung; 5, 6 mittlere Schäden; 5, 6 mittlere Schäden; 7, 8 leichte Schäden; 7, 8 leichte Schäden; 9 Pflanze gedeiht normal, wie unbehandelte Kontrollpflanze; settings: after 3 weeks
Protocol: as §1

[1] = system: Baumwollpflanzen der Sorte Deltapine; experiment: Desiccation and defoliation action on cotton; settings: Aufwandmenge 0,6 kg/ha, nach 14 Tagen; only a few dried-up leaves left on the plant
Source text: Im Gewächshaus wurden Baumwollpflanzen der Sorte Deltapine in Tontöpfen angezogen. Nach abgeschlossener Kapselbildung wurden sie mit wässrigen Zubereitungen der Wirkstoffe in einer Aufwandmenge, die 1,2, 0,6 und 0,3 kg/ha im Feld entspräche, gespritzt. Unbehandelte Pflanzen wurden als Kontrolle belassen. Die Auswertung des Versuches erfolgte 3, 7 und 14 Tage nach Applikation der Versuchssubstanz durch Bestimmen des Grades an Defoliation (% abgefallene Blätter) und an Dessikation (% Austrocknung der an der Pflanze verbleibenden Blätter).

SMILES: CCOC(=O)CCC(C)Oc1cc(Oc2ccc(C(F)(F)F)cc2Br)ccc1Cl (stereo not shown) [compound 16]
- Zustand der Pflanzen (EWRC Bewertungsschema) (amarantus retrofl.; Aufwandmenge 2 kg/ha): 2
- Zustand der Pflanzen (EWRC Bewertungsschema) (amarantus retrofl.; Aufwandmenge 4 kg/ha): 1
- Zustand der Pflanzen (EWRC Bewertungsschema) (chenopodium sp.; Aufwandmenge 2 kg/ha): 1
- Zustand der Pflanzen (EWRC Bewertungsschema) (chenopodium sp.; Aufwandmenge 4 kg/ha): 1
- Zustand der Pflanzen (EWRC Bewertungsschema) (beta vulgaris; Aufwandmenge 2 kg/ha): 1
- Zustand der Pflanzen (EWRC Bewertungsschema) (beta vulgaris; Aufwandmenge 4 kg/ha): 1
- Zustand der Pflanzen (EWRC Bewertungsschema) (viola tricolor; Aufwandmenge 2 kg/ha): 2
- Zustand der Pflanzen (EWRC Bewertungsschema) (viola tricolor; Aufwandmenge 4 kg/ha): 1
- Zustand der Pflanzen (EWRC Bewertungsschema) (chrysanthemum l.; Aufwandmenge 2 kg/ha): 1
- Zustand der Pflanzen (EWRC Bewertungsschema) (chrysanthemum l.; Aufwandmenge 4 kg/ha): 1
- Zustand der Pflanzen (EWRC Bewertungsschema) (sinapis alba; Aufwandmenge 2 kg/ha): 1
- Zustand der Pflanzen (EWRC Bewertungsschema) (sinapis alba; Aufwandmenge 4 kg/ha): 1
- Zustand der Pflanzen (EWRC Bewertungsschema) (Weizen; Aufwandmenge 2 kg/ha): 9
- Zustand der Pflanzen (EWRC Bewertungsschema) (Weizen; Aufwandmenge 4 kg/ha): 9
- Zustand der Pflanzen (EWRC Bewertungsschema) (Reis; Aufwandmenge 2 kg/ha): 9
- Zustand der Pflanzen (EWRC Bewertungsschema) (Reis; Aufwandmenge 4 kg/ha): 9
- Zustand der Pflanzen (EWRC Bewertungsschema) (abutilon sp; Aufwandmenge 2 kg/ha): 5
- Zustand der Pflanzen (EWRC Bewertungsschema) (abutilon sp; Aufwandmenge 4 kg/ha): 1
- Wirkung (Defoliation und Dessikation) [1]: 90%
